Results as given in the supplement of paper PMC8612539.
Converted amounts (≈) assume the structure as drawn.

Test system: Histophilus somni
Test: minimum inhibitory concentration (MIC)
Method: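 Broth microdilution MIC (Sensititre BOPO7F bovine plate, CLSI methods) of 19 antimicrobials against field isolates of P. multocida, M. haemolytica, H. somni (deep nasopharyngeal swabs) and E. coli, Enterococcus spp. (rectal swabs) from weaned dairy heifers. Incubation 16-24 h at 35 C. MIC is the lowest concentration preventing visible growth. Values with <= or > lie at the tested range limits. Trimethoprim-sulfamethoxazole is given as the trimethoprim component of a 1:19 mixture.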

C=C[C@]1(C)C[C@@H](OC(=O)CSCCN(CC)CC)[C@]2(C)[C@H](C)CC[C@]3(CCC(=O)[C@H]32)[C@@H](C)[C@@H]1O [Tiamulin]
Details | minimum inhibitory concentration [µg/mL]
isolate (source animal id): 3 | 1 (≈ 2.03 µM)
isolate (source animal id): 4 | 1 (≈ 2.03 µM)
isolate (source animal id): 7 | 1 (≈ 2.03 µM)
isolate (source animal id): 14 | 2 (≈ 4.05 µM)
isolate (source animal id): 15 | 1 (≈ 2.03 µM)
isolate (source animal id): 17 | 1 (≈ 2.03 µM)
isolate (source animal id): 18 | 1 (≈ 2.03 µM)
isolate (source animal id): 20 | ≤ 0.5
isolate (source animal id): 23 | 1 (≈ 2.03 µM)
isolate (source animal id): 45 | 2 (≈ 4.05 µM)
isolate (source animal id): 53 | 2 (≈ 4.05 µM)
isolate (source animal id): 83 | 1 (≈ 2.03 µM)
isolate (source animal id): 88 | 1 (≈ 2.03 µM)
isolate (source animal id): 92 | 2 (≈ 4.05 µM)
isolate (source animal id): 93 | 1 (≈ 2.03 µM)
isolate (source animal id): 99 | 2 (≈ 4.05 µM)
isolate (source animal id): 100 | 2 (≈ 4.05 µM)
isolate (source animal id): 105 | 1 (≈ 2.03 µM)
isolate (source animal id): 107 | 2 (≈ 4.05 µM)
isolate (source animal id): 108 | 2 (≈ 4.05 µM)
isolate (source animal id): 109 | 2 (≈ 4.05 µM)
isolate (source animal id): 110 | 2 (≈ 4.05 µM)
isolate (source animal id): 117 | 1 (≈ 2.03 µM)
isolate (source animal id): 121 | 1 (≈ 2.03 µM)
isolate (source animal id): 123 | 1 (≈ 2.03 µM)
isolate (source animal id): 124 | 2 (≈ 4.05 µM)
isolate (source animal id): 127 | 1 (≈ 2.03 µM)
isolate (source animal id): 128 | 1 (≈ 2.03 µM)
isolate (source animal id): 130 | 1 (≈ 2.03 µM)
isolate (source animal id): 132 | 2 (≈ 4.05 µM)
isolate (source animal id): 135 | 1 (≈ 2.03 µM)
isolate (source animal id): 140 | 2 (≈ 4.05 µM)
isolate (source animal id): 141 | 2 (≈ 4.05 µM)
isolate (source animal id): 142 | 2 (≈ 4.05 µM)
isolate (source animal id): 144 | 2 (≈ 4.05 µM)
isolate (source animal id): 146 | 1 (≈ 2.03 µM)
isolate (source animal id): 147 | 2 (≈ 4.05 µM)
isolate (source animal id): 151 | 1 (≈ 2.03 µM)
isolate (source animal id): 153 | 2 (≈ 4.05 µM)
isolate (source animal id): 154 | 2 (≈ 4.05 µM)
isolate (source animal id): 156 | 2 (≈ 4.05 µM)
isolate (source animal id): 157 | 2 (≈ 4.05 µM)
isolate (source animal id): 176 | 4 (≈ 8.1 µM)
isolate (source animal id): 183 | 2 (≈ 4.05 µM)
isolate (source animal id): 186 | 2 (≈ 4.05 µM)
isolate (source animal id): 196 | 2 (≈ 4.05 µM)
isolate (source animal id): 198 | 1 (≈ 2.03 µM)
isolate (source animal id): 200 | 2 (≈ 4.05 µM)
isolate (source animal id): 206 | 1 (≈ 2.03 µM)
isolate (source animal id): 208 | 2 (≈ 4.05 µM)
isolate (source animal id): 210 | ≤ 0.5
isolate (source animal id): 212 | ≤ 0.5
isolate (source animal id): 215 | 2 (≈ 4.05 µM)
isolate (source animal id): 216 | 2 (≈ 4.05 µM)
isolate (source animal id): 218 | 2 (≈ 4.05 µM)
isolate (source animal id): 219 | 2 (≈ 4.05 µM)
isolate (source animal id): 224 | 2 (≈ 4.05 µM)
isolate (source animal id): 228 | 2 (≈ 4.05 µM)
isolate (source animal id): 230 | 2 (≈ 4.05 µM)
isolate (source animal id): 233 | 1 (≈ 2.03 µM)
isolate (source animal id): 238 | ≤ 0.5
isolate (source animal id): 239 | 2 (≈ 4.05 µM)
isolate (source animal id): 241 | 2 (≈ 4.05 µM)
isolate (source animal id): 242 | 2 (≈ 4.05 µM)
isolate (source animal id): 243 | 2 (≈ 4.05 µM)
isolate (source animal id): 245 | 2 (≈ 4.05 µM)
isolate (source animal id): 246 | 4 (≈ 8.1 µM)
isolate (source animal id): 247 | 2 (≈ 4.05 µM)
isolate (source animal id): 248 | 1 (≈ 2.03 µM)
isolate (source animal id): 250 | 2 (≈ 4.05 µM)
isolate (source animal id): 251 | 2 (≈ 4.05 µM)
isolate (source animal id): 252 | 4 (≈ 8.1 µM)
isolate (source animal id): 254 | 2 (≈ 4.05 µM)
isolate (source animal id): 258 | 2 (≈ 4.05 µM)
isolate (source animal id): 259 | 1 (≈ 2.03 µM)
isolate (source animal id): 262 | 1 (≈ 2.03 µM)
isolate (source animal id): 264 | ≤ 0.5
isolate (source animal id): 265 | 1 (≈ 2.03 µM)
isolate (source animal id): 266 | 1 (≈ 2.03 µM)
isolate (source animal id): 267 | 1 (≈ 2.03 µM)
isolate (source animal id): 269 | 1 (≈ 2.03 µM)
isolate (source animal id): 271 | 1 (≈ 2.03 µM)
isolate (source animal id): 272 | 1 (≈ 2.03 µM)
isolate (source animal id): 274 | 1 (≈ 2.03 µM)
isolate (source animal id): 276 | 1 (≈ 2.03 µM)
isolate (source animal id): 278 | 1 (≈ 2.03 µM)
isolate (source animal id): 280 | ≤ 0.5
isolate (source animal id): 281 | 2 (≈ 4.05 µM)
isolate (source animal id): 283 | 1 (≈ 2.03 µM)
isolate (source animal id): 288 | 1 (≈ 2.03 µM)
isolate (source animal id): 291 | 1 (≈ 2.03 µM)
isolate (source animal id): 292 | 1 (≈ 2.03 µM)
isolate (source animal id): 296 | ≤ 0.5
isolate (source animal id): 306 | 1 (≈ 2.03 µM)
isolate (source animal id): 336 | 1 (≈ 2.03 µM)
isolate (source animal id): 337 | 1 (≈ 2.03 µM)
isolate (source animal id): 341 | 1 (≈ 2.03 µM)
